Measurements from BindingDB's records for doi:10.1016/s0006-2952(97)00631-x (Roche Bioscience, 1998).
“And” between values parts separate entries of the source, which are not always exact repeats. Equal values may be shown once.

What was measured:
[1] = target: T1, Alpha-2A adrenergic receptor (Mus musculus, UniProt Q1HL33)
T1 sequence (Q1HL33 whole entry): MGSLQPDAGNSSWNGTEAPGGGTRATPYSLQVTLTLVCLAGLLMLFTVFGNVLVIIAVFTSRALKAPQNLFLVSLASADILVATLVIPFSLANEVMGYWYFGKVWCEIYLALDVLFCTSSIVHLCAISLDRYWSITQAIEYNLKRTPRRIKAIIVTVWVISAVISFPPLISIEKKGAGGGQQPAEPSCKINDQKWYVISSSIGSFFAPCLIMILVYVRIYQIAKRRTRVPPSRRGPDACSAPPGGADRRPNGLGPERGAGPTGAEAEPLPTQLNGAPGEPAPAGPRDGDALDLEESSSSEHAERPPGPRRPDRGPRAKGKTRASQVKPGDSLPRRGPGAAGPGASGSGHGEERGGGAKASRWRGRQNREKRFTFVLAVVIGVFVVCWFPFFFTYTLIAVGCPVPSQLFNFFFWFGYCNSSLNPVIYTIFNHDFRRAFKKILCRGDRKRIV

[2] = target: T2, Alpha-2C adrenergic receptor (Homo sapiens, UniProt P18825)
T2 sequence (P18825 whole entry): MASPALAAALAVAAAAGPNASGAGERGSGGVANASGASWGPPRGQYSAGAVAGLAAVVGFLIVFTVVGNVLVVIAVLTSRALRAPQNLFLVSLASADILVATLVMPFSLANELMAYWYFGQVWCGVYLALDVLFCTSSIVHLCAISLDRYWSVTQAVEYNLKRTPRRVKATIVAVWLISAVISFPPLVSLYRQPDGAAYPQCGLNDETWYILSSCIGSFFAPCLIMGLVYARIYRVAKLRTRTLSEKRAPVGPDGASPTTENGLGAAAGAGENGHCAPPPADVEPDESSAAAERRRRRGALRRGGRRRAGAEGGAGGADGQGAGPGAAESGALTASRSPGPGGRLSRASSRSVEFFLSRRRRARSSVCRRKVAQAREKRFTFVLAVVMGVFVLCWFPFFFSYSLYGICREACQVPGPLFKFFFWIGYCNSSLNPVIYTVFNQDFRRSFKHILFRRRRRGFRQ

[3] = target: T3, Alpha-2A adrenergic receptor (Homo sapiens, UniProt P08913)
T3 sequence (P08913 whole entry): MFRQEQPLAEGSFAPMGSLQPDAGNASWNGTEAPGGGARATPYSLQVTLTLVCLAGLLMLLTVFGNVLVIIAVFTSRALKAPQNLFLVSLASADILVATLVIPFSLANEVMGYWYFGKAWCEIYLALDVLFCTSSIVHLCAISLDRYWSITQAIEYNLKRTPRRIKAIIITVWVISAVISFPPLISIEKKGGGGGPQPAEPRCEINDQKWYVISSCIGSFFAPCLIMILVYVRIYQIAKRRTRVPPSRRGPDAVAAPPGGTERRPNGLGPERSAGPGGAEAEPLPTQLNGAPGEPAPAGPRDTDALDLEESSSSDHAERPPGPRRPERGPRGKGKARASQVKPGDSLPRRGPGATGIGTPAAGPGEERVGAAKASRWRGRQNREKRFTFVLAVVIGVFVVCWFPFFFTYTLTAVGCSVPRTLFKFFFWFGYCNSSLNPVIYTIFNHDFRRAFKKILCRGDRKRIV

SMILES	Ki [1]	Ki [2]	Ki [3]
Cc1cc(C(C)(C)C)c(O)c(C)c1CC1=NCCN1 [SMR000059324]	15.5 nM and 25.7 nM	–	–
COC1(C2=NCCN2)COc2ccccc2O1 (centres undefined) [RX821002]	0.62 nM	0.79 nM	0.36 nM
c1ccc2c(CC3=NCCN3)cccc2c1 [Naphazoline]	11.5 nM and 17 nM	407 nM	20.9 nM
C[C@@H](Oc1c(Cl)cccc1Cl)C1=NCCN1 [CAS_81447-78-1]	–	174 nM	–
Cc1cccc([C@@H](C)c2cnc[nH]2)c1C	3.39 nM	95.5 nM	–
CN1CCC2(CCN3CCc4c(oc5ccccc45)C3C2)N(C)C1=O (centres undefined) [MK-912]	–	0.07 nM	0.85 nM
Clc1cccc(Cl)c1N=C1NCCN1 [2-(2,6-dichloroanilino)-2-imidazoline]	40.7 nM	–	–
NCC(O)c1ccc(O)c(O)c1 (stereo not drawn) [Noradrenaline,(+)]	1410 nM	1350 nM	–
C=CCN(C1=NCCN1)c1c(Cl)cccc1Cl [CAS_33178-86-8]	–	> 10000 nM	6030 nM
CC(C)NCC(O)c1ccc(O)c(O)c1 (stereo not drawn) [Isoproterenol,(+)]	> 10000 nM	–	–
c1ccc2ccccc2c1 [naphtaline]	7.76 nM and 9.33 nM	3.31 nM	4.57 nM
Nc1cc(Cl)c(N=C2NCCN2)c(Cl)c1 [p-AMINOCLONIDINE]	–	21.4 nM	7.94 nM
CC(N)C(O)c1ccc(O)c(O)c1 (stereo not drawn) [alpha-Methyl-(+/-)norepinephrine,(+/-)]	–	2880 nM	3630 nM
C=CCN1CCc2nc(N)sc2CC1 [B-HT 920]	–	955 nM	398 nM
Oc1ccc2c(c1O)CCC[C@@H]2C1=NCCN1 [A-54741]	9.77 nM	776 nM	–
Fc1cccc(Cl)c1C1CC2=NCCN2C1 (centres undefined) [CAS_67249-51-8]	–	282 nM	7.94 nM
CCn1ccnc1CC1COc2ccccc2O1 (centres undefined) [NSC_133621]	–	151 nM	316 nM
c1cc2c(c(NC3=NCCN3)c1)CCCC2	15.5 nM	275 nM	31.6 nM
N=C(N)NC(=O)Cc1c(Cl)cccc1Cl [NSC_3519]	20.4 nM	–	–
CCc1cccc(CC)c1NC1=NCCN1 [ST 91]	537 nM	617 nM	575 nM
Cc1cccc(C)c1N=C1NCCCS1 [(5,6-Dihydro-4H-[1,3]thiazin-2-yl)-(2,6-dimethyl-phenyl)-amine]	2400 nM	> 10000 nM	5750 nM
Cc1cc(C(C)(C)C)cc(C)c1CC1=NCCN1 [SMR000058526]	25.7 nM and 24 nM	129 nM	15.1 nM
C1COC(NC(C2CC2)C2CC2)=N1 [rilmenidine]	724 nM	4680 nM	1580 nM
